Values quoted from earlier work in patent US12171237B2, “Insect repelling compositions and methods of manufacture thereof” (priority 2019, dated 2024).
“Also recorded” adds a separate entry of the source. Like-named read-outs stand apart in the source and are kept apart here.

Tests used:
female Ae. albopictus = conditions: spatial repellent, 0.25 μg·cm^−2, after 48 h exposure
Ae. albopictus = conditions: 1 h, 1.92 μg·cm^−2
Ae. aegypti = conditions: 1 h, 1.92 μg·cm^−2
female Ae. aegypti = conditions: Human-bait assay
[1] = system: Cx. pipiens pallens, Cx. pipiens quinquefasciatus
[2] = system: female Cx. pipiens pallens
Mosquito = conditions: d-α-pinene

| SMILES | repellency (‡) (Ae. albopictus) [%] | repellency (†) (Ae. aegypti) [%] | repellency (female Ae. aegypti; 1.4 mg·cm^−2) | also measured |
| --- | --- | --- | --- | --- |
| CC(C)=CCC/C(C)=C/CO [Geraniol] | – | – | – | (reversible) inhibition of host-seeking (female Ae. albopictus): spatial repellent: 0.25 μg · cm^−2 ca. 100% (reversible) |
| CC1=CCC(C(C)C)=CC1 [γ-Terpinene] | 72 | 60 | – | – |
| CC1=CC=C(C(C)C)CC1 [α-Terpinene] | 55 | 68 | ^a1.4 mg · cm^−2 = 15% repellency | – |
| CC(C)=CCC/C(C)=C/C=O [Geranial] | – | – | – | blood-sucking by mosquitoes reduced by ([1]; at 0.2 mg·cm^−2, after 1 h): 10%; blood-sucking by mosquitoes reduced by ([1]; at 0.2 mg·cm^−2, after 2 h): 15%; blood-sucking by mosquitoes reduced by ([1]; at 0.2 mg·cm^−2, after 3 h): 18% |
| CC1=CCC(O)(C(C)C)CC1 (centres unmarked) [Terpinen-4-ol] | 85 | 92 | ^a1.4 mg · cm^−2 = 83% repellency | – |
| C=CC(C)(O)CCC=C(C)C (racemic) [Linalool] | – | – | ^a1.4 mg (±)-linalool · cm^−2 = 67% repellency | – |
| C=CCc1ccc(O)c(OC)c1 [Eugenol] | – | – | – | Repellency (in words) [2]: high repellency |
| CC(C)=CCCC(C)CCO (centres unmarked) [Citronellol] | – | – | – | Repellency (in words) (female An. gambiae): repellent component; also recorded: feeding deterrent/repellent, spatial repellent/inhibitor |
| CCCCCCCC/C=C\CCCCCCCC(=O)O [Oleic acid] | – | – | – | repellency (female Ae. aegypti; 0.4 mg·cm^−2, after 1 h): 0.4 mg · cm^−2 = 52% repellency after 1 h^a |
| CC1=CCC2CC1C2(C)C (stereo not drawn) [α-Pinene] | – | – | – | protection (Mosquito): d-α-pinene , 2 h protection |
